Measured values: US4435574A, “2,6-Dimethyl-3,5-dicarbomethoxy-4-(ortho -di-fluoromethylthiophenyl)-1,4-dihydropyridine” (priority 1981, dated 1984)
“And” between values parts separate entries of the source, which are not always exact repeats. Identical values can stand only once. “Also recorded” adds a separate entry of the source. Like-named read-outs stand apart in the source and are kept apart here.

Experiments:
[1] = tested on: coronary blood flow; test: Volume rate of the coronary blood flow in anesthetized cats, intravenous; format: in vivo; conditions: for Effective period / Increase in coronary blood flow: intravenous
[2] = tested on: coronary blood flow; conditions: prior-art compound, in words; cited from earlier work
[3] = prior-art compound, in words; cited from earlier work
[4] = tested on: arterial blood pressure of anesthetized cats; test: Reduction of arterial blood pressure by 30 percent (ED30) in anesthetized cats; format: in vivo; conditions: for ED30: Felis catus, read-out: ED30 (effective dose that reduces arterial blood pressure by 30 percent)
[5] = tested on: spontaneously hypertensive rats; test: Systolic arterial pressure in awake spontaneously hypertensive female rats of the Okamoto-Aoki line, intragastric; format: in vivo; conditions: for Hypotensive effect, %, upon administration to spontaneously hypertensive rats: into the stomach
Experimental: Investigation of the pharmacological action of 2,6-dimethyl-3,5-dicarbomethoxy-4-(o-difluoromethylthiophenyl)-1,4-dihydropyridine upon parameters characterizing the performance of the cardiovascular system has been carried out in anesthetized cats, as well as in rats.
In the conditions as stated above, the proposed compound exceeded the SKF-24260 compound approximately 3 times with respect to both hypotensive activity and active period (see Table 1).
24 hours after administration of the proposed compound in a dose of 10 mg/kg, the systolic arterial pressure was down by a further 21.4±2.7%.

[6] = Acute toxicity in breedless white mice, intraperitoneal; format: in vivo; conditions: mouse, in vivo, ip; intraperitoneal administration to white mice
From the text: (§1) In experiments carried out in breedless white mice, the proposed compound, administered intraperitoneally, has been investigated for acute toxicity.

[7] = tested on: white mice; test: as above; format: in vivo; conditions: in words
From the text: as §1

[8] = Light stability; format: physicochemical; conditions: in words
[9] = Solubility; format: physicochemical
[10] = tested on: arterial blood pressure of anesthetized cats; conditions: prior-art compound, in words; cited from earlier work
[11] = tested on: white mice; conditions: prior-art compound, in words; cited from earlier work

COC(=O)C1=C(C)NC(C)=C(C(=O)OC)C1c1ccccc1[N+](=O)[O-] [Adalate, 2,6-dimethyl-3,5-dicarbomethoxy-4-(o-nitrophenyl)-1,4-dihydropyridine, reference compound]
Effective period ([1]; 0.05 mg/kg): 35 min | Increase in coronary blood flow ([1]; 0.05 mg/kg): 90% | Coronarodilating activity [2]: high coronarodilating activity | Sensitivity to light [3]: highly sensitive to light, decomposing rapidly in the presence of light

COC(=O)C1=C(C)NC(C)=C(C(=O)OC)C1c1ccccc1SC(F)F [Proposed compound, 2,6-dimethyl-3,5-dicarbomethoxy-4-(o-difluoromethylthiophenyl)-1,4-dihydropyridine]
ED30 [4]: 0.019 mg/kg | Hypotensive effect compared with SKF-24260 ([4]; acute experiments, 50% aqueous dimethylacetamide, in words): same hypotensive effect | Systolic arterial pressure ([5]; 1 mg/kg and 10 mg/kg into the stomach, in words): dropped considerably | Hypotensive effect, %, upon administration to spontaneously hypertensive rats ([5]; after 6 hours, 1 mg/kg): 19.5% | Hypotensive effect, %, upon administration to spontaneously hypertensive rats ([5]; after 6 hours, 10 mg/kg): 54.8% | Hypotensive effect, %, upon administration to spontaneously hypertensive rats ([5]; after 24 hours, 10 mg/kg, 10 mg/kg): 21.4±2.7% and 21.4% | Duration of hypotensive activity ([5]; in words): prolonged duration; also recorded: highly prolonged hypotensive activity | Duration of hypotensive action (active period) relative to SKF-24260 ([5]; spontaneously hypertensive rats): approximately 3 times | LD50 [6]: 93 mg/kg | Toxicity [7]: low toxicity | Toxicity compared with SKF-24260 ([7]; intraperitoneal, mice): considerably lower; also recorded: considerably less toxic | Effective period ([1]; 0.05 mg/kg): 30 min | Increase in coronary blood flow ([1]; 0.05 mg/kg): 103% | Effective period ([1]; 0.1 mg/kg): 65 min | Increase in coronary blood flow ([1]; 0.1 mg/kg): 150% | Coronarodilating effect ([1]; in words): pronounced coronarodilatory action; also recorded: capable of producing a coronarodilating effect | Coronarodilating effect compared with Adalate ([1]; in words): comparable with that of Adalate; also recorded: comparable with the coronarodilatory action of Adalate | Sensitivity to light [8]: light-resistant | Solubility in organic solvents ([9]; organic solvents): soluble in organic solvents | Solubility in water ([9]; water): insoluble in water

CCOC(=O)C1=C(C)NC(C)=C(C(=O)OCC)C1c1ccccc1C(F)(F)F [SKF-24260, 2,6-dimethyl-3,5-dicarbothoxy-4-(o-trifluoromethylphenyl)-1,4-dihydropyridine, reference compound]
ED30 [4]: 0.022 mg/kg | Systolic arterial pressure after 24 hours ([5]; 10 mg/kg, 24 hours, result in words): return to the initial value or increase above the initial level; also recorded: Initial | Hypotensive effect, %, upon administration to spontaneously hypertensive rats ([5]; after 6 hours, 1 mg/kg): 6.0% | Hypotensive effect, %, upon administration to spontaneously hypertensive rats ([5]; after 6 hours, 10 mg/kg): 15.8% | LD50 [6]: 38.5 mg/kg | Duration of hypotensive effect [10]: short duration | Hypotensive activity [10]: appreciable hypotensive activity | Toxicity [11]: high toxicity
